Test results as given in patent US20070208062A1, “3-(4-(2-DIHYDROISOXAZOL-3-YLPYRIDIN-5-YL)PHENYL)-5-TRIAZOL-1-YLMETHYLOXAZOLIDIN-2-ONE DERIVATIVES AS MAO INHIBITORS FOR THE TREATMENT OF BACTERIAL INFECTIONS” (ASTRAZENECA AB, priority 2004, published 2007).
pKi: −log10 of the molar value. Converted amounts (≈) assume the structure as drawn. Counter-ions that a name gives are not always drawn.

Legend:
[1] = tested on: Staphylococcus aureus MSQS (methicillin sensitive and quinolone sensitive); assay: MIC by agar-dilution, Staphylococcus aureus MSQS; assay type: cell-based; details: inoculum 10^4 CFU/spot, 37° C., 24 hours
Procedure: (§1) The following results were obtained on a standard in-vitro test system. The activity is described in terms of the minimum inhibitory concentration (MIC) determined by the agar-dilution technique with an inoculum size of 10^4 CFU/spot. Typically, compounds are active in the range 0.01 to 256 μg/ml.
(§2) Staphylococci were tested on agar, using an inoculum of 10^4 CFU/spot and an incubation temperature of 37° C. for 24 hours—standard test conditions for the expression of methicillin resistance.

[2] = tested on: Staphylococcus aureus MRQR (methicillin resistant and quinolone resistant); assay: MIC by agar-dilution, Staphylococcus aureus MRQR; assay type: cell-based; details: inoculum 10^4 CFU/spot, 37° C., 24 hours
Procedure: as §1, §2

[3] = tested on: Streptococcus pneumoniae; assay: MIC, Streptococcus pneumoniae; assay type: cell-based; details: agar with 5% defibrinated horse blood, 5% carbon dioxide, 48 hours
Procedure: as §1
(§3) Streptococci and enterococci were tested on agar supplemented with 5% defibrinated horse blood, an inoculum of 10^4 CFU/spot and an incubation temperature of 37° C. in an atmosphere of 5% carbon dioxide for 48 hours—blood is required for the growth of some of the test organisms. Fastidious Gram negative organisms were tested in Mueller-Hinton broth, supplemented with hemin and NAD, grown aerobically for 24 hours at 37° C., and with an inoculum of 5×10^4 CFU/well.

[4] = tested on: Haemophilus influenzae; assay: MIC, Haemophilus influenzae; assay type: cell-based; details: Mueller-Hinton broth with hemin and NAD, 24 hours, 5×10^4 CFU/well
Procedure: as §1, §3

[5] = tested on: Moraxella catarrhalis; assay: MIC, Moraxella catarrhalis; assay type: cell-based; details: Mueller-Hinton broth with hemin and NAD, 24 hours, 5×10^4 CFU/well
Procedure: as §1, §3

[6] = tested on: Linezolid Resistant Streptococcus pneumoniae; assay: MIC, Linezolid Resistant Streptococcus pneumoniae; assay type: cell-based; details: agar with 5% defibrinated horse blood, 5% carbon dioxide, 48 hours
Procedure: as §1, §3

[7] = target: T1, MAO-A (Homo sapiens, UniProt P21397); assay: MAO-A standard in-vitro assay, human liver enzyme expressed in yeast; assay type: biochemical; details: read-out: Ki against MAO-A
T1 construct: made in house; host or cells: yeast
T1 sequence (P21397 1-527): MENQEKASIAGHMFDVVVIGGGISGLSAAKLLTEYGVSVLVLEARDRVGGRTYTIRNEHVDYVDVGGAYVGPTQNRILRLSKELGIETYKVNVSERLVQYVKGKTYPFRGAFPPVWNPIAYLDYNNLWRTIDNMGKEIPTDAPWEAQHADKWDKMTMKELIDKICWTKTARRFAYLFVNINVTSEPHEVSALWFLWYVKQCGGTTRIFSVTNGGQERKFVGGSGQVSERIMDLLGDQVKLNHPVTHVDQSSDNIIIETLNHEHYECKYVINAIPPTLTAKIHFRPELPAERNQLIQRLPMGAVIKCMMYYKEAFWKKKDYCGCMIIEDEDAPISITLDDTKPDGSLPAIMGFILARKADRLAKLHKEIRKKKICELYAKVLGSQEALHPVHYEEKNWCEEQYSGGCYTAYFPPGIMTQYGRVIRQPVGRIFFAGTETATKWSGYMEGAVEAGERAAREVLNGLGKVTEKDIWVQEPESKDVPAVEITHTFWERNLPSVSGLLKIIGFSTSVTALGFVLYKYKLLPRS
Procedure: The activity of the compounds of the invention against MAO-A was tested using a standard in-vitro assay based on human liver enzyme expressed in yeast as described in Biochem. Biophys. Res. Commun. 1991, 181, 1084-1088.

[8] = tested on: Staphylococci, Streptococci, enterococci, fastidious Gram negative organisms; assay: standard in-vitro test system, antibacterial activity (MIC); assay type: cell-based; details: result in words
Description: The pharmaceutically-acceptable compounds of the present invention are useful antibacterial agents having a good spectrum of activity in vitro against standard Gram-positive organisms, which are used to screen for activity against pathogenic bacteria. […] The antibacterial spectrum and potency of a particular compound may be determined in a standard test system.
as §1, §2, §3

Row | SMILES | melting point [°C] | further results
1 | CC[C@H](C)[C@H](N)C(=O)OCCOC[C@@H]1CC(c2ccc(-c3ccc(N4C[C@H](Cn5ccnn5)OC4=O)cc3F)cn2)=NO1 (as salt: HCl) [Example 17, 2-{[(5S)-3-(5-{2-Fluoro-4-[(5R)-2-oxo-5-(1H-1,2,3-triazol-1-ylmethyl)-1,3-oxazolidin-3-yl]phenyl}pyridin-2-yl)-4,5-dihydroisoxazole-5-yl]methoxy}ethyl L-isoleucinate] | 119 | –
2 | CNC(=O)COC[C@@H]1CC(c2ccc(-c3ccc(N4C[C@H](Cn5ccnn5)OC4=O)cc3F)cn2)=NO1 [Example 4, 2-{[(5S)-3-(5-{2-Fluoro-4-[(5R)-2-oxo-5-(1H-1,2,3-triazol-1-ylmethyl)-1,3-oxazolidin-3-yl]phenyl}pyridin-2-yl)-4,5-dihydroisoxazole-5-yl]methoxy}-N-methylacetamide] | 153 to 156 | MIC [1]: 0.25 µg/mL (≈ 0.491 µM); MIC [2]: 0.5 µg/mL (≈ 0.981 µM); MIC [3]: 0.06 µg/mL (≈ 0.118 µM); MIC [4]: 8 µg/mL (≈ 15.7 µM); MIC [5]: 0.5 µg/mL (≈ 0.981 µM); MIC [6]: 1 µg/mL (≈ 1.96 µM); pKi [7]: 5.10
3 | CN1CCN(C(=O)COC[C@@H]2CC(c3ccc(-c4ccc(N5C[C@H](Cn6ccnn6)OC5=O)cc4F)cn3)=NO2)CC1 [Example 6, (5R)-3-{3-Fluoro-4-[6-((5S)-5-{[2-(4-methylpiperazin-1-yl)-2-oxoethoxy]methyl}-4,5-dihydroisoxazole-3-yl)pyridin-3-yl]phenyl}-5-(1H-1,23-triazol-1-ylmethyl)-1,3-oxazolidin-2-one] | 165 to 175 | –
4 | O=C1O[C@@H](Cn2ccnn2)CN1c1ccc(-c2ccc(C3=NO[C@H](COCCCO)C3)nc2)c(F)c1 [Example 7, (5R)-3-[3-Fluoro-4-(6-{(5S)-5-[(3-hydroxypropoxy)methyl]-4,5-dihydroisoxazole-3-yl}pyridin-3-yl)phenyl]-5-(1H-1,23-triazol-1-ylmethyl)-1,3-oxazolidin-2-one] | 176 | –
5 | O=C1O[C@@H](Cn2ccnn2)CN1c1ccc(-c2ccc(C3=NO[C@H](COCCO)C3)nc2)c(F)c1 [Example 8] | 162 | –
6 | N#CCOC[C@@H]1CC(c2ccc(-c3ccc(N4C[C@H](Cn5ccnn5)OC4=O)cc3F)cn2)=NO1 [Example 15, {[(5S)-3-(5-{2-Fluoro-4-[(5R)-2-oxo-5-(1H-1,2,3-triazol-1-ylmethyl)-1,3-oxazolidin-3-yl]phenyl}pyridin-2-yl)-4,5-dihydroisoxazole-5-yl]methoxy}acetonitrile] | 90 to 115 | –
7 | CC(C)(C)OC(=O)COC[C@@H]1CC(c2ccc(-c3ccc(N4C[C@H](Cn5ccnn5)OC4=O)cc3F)cn2)=NO1 [Pro-drug Example 1, tert-Butyl {[(5S)-3-(5-{2-fluoro-4-[(5R)-2-oxo-5-(1H-1,2,3-triazol-1-ylmethyl)-1,3-oxazolidin-3-yl]phenyl}pyridin-2-yl)-4,5-dihydroisoxazole-5-yl]methoxy}acetate] | 186 | –
8 | C=CCOC[C@@H]1CC(c2ccc(-c3ccc(N4C[C@H](Cn5ccnn5)OC4=O)cc3F)cn2)=NO1 [compound 2, (5R)-3-[4-(6-{(5S)-5-[(Allyloxy)methyl]-4,5-dihydroisoxazole-3-yl}pyridin-3-yl)-3-fluorophenyl]-5-(1H-1,2,3-triazol-1-ylmethyl)-1,3-oxazolidin-2-one] | 162 | antibacterial activity [8]: have antibacterial activity
9 | [N-]=[N+]=NCCOC[C@@H]1CC(c2ccc(-c3ccc(N4C[C@H](Cn5ccnn5)OC4=O)cc3F)cn2)=NO1 [compound 9] | 148 | antibacterial activity [8]: have antibacterial activity

Now from value to compound, other results behind:

Row | melting point [°C] | SMILES | further results
10 | 110 to 115 | CN(C)CC(O)COC[C@@H]1CC(c2ccc(-c3ccc(N4C[C@H](Cn5ccnn5)OC4=O)cc3F)cn2)=NO1 (some centres unmarked) (as salt: hydrochloride) [Example 19] | –
11 | 171 | O=C1OC(Cn2ccnn2)CN1c1ccc(-c2ccc(C3=NO[C@H](COCCN4CCOCC4)C3)nc2)c(F)c1 (stereo in doubt) [Example 10, (5S)-3-[3-Fluoro-4-(6-{(5S)-5-[(2-morpholin-4-ylethoxy)methyl]-4,5-dihydroisoxazole-3-yl}pyridin-3-yl)phenyl]-5-(1H-1,2,3-triazol-1-ylmethyl)-1,3-oxazolidin-2-one] | –
12 | 190 | O=C(O)COC[C@@H]1CC(c2ccc(-c3ccc(N4C[C@H](Cn5ccnn5)OC4=O)cc3F)cn2)=NO1 [Example 3, {[(5S)-3-(5-{2-Fluoro-4-[(5R)-2-oxo-5-(1H-1,2,3-triazol-1-ylmethyl)-1,3-oxazolidin-3-yl]phenyl}pyridin-2-yl)-4,5-dihydroisoxazole-5-yl]methoxy}acetic acid] | –
13 | 166 to 168 | CN(C)C(=O)COC[C@@H]1CC(c2ccc(-c3ccc(N4C[C@H](Cn5ccnn5)OC4=O)cc3F)cn2)=NO1 [Example 5, 2-{[(5S)-3-(5-{2-Fluoro-4-[(5R)-2-oxo-5-(1H-1,2,3-triazol-1-ylmethyl)-1,3-oxazolidin-3-yl]phenyl}pyridin-2-yl)-4,5-dihydroisoxazole-5-yl]methoxy}-N,N-dimethylacetamide] | –
14 | 170 | CS(=O)(=O)NCCOC[C@@H]1CC(c2ccc(-c3ccc(N4C[C@H](Cn5ccnn5)OC4=O)cc3F)cn2)=NO1 [Example 13, N-(2-{[(5S)-3-(5-{2-Fluoro-4-[(5R)-2-oxo-5-(1H-1,2,3-triazol-1-ylmethyl)-1,3-oxazolidin-3-yl]phenyl}pyridin-2-yl)-4,5-dihydroisoxazole-5-yl]methoxy}ethyl)methanesulfonamide] | –
15 | 134 | CC(=O)NCCOC[C@@H]1CC(c2ccc(-c3ccc(N4C[C@H](Cn5ccnn5)OC4=O)cc3F)cn2)=NO1 [Example 14, N-(2-{[(5S)-3-(5-{2-Fluoro-4-[(5R)-2-oxo-5-(1H-1,2,3-triazol-1-ylmethyl)-1,3-oxazolidin-3-yl]phenyl}pyridin-2-yl)-4,5-dihydroisoxazole-5-yl]methoxy}ethyl)acetamide] | –
16 | 180 to 187 | CC(C)(O)COC[C@@H]1CC(c2ccc(-c3ccc(N4C[C@H](Cn5ccnn5)OC4=O)cc3F)cn2)=NO1 [Example 16] | –
17 | 135 to 140 | CN(CCOC[C@@H]1CC(c2ccc(-c3ccc(N4C[C@H](Cn5ccnn5)OC4=O)cc3F)cn2)=NO1)CC(=O)O [Example 20, N-(2-{[(5S)-3-(5-{2-Fluoro-4-[(5R)-2-oxo-5-(1H-1,2,3-triazol-1-ylmethyl)-1,3-oxazolidin-3-yl]phenyl}pyridin-2-yl)-4,5-dihydroisoxazole-5-yl]methoxy}ethyl)-N-methylglycine] | –
